Here are results for 18 molecules from patent US20230348426A1, “OXOPYRROLIDINE FPR2 AGONISTS” (Bristol-Myers Squibb Company, priority 2020, published 2023).

One experiment concerns the target human FPR2 (Homo sapiens (Human), UniProt P25090). In words: FPR2 cyclic adenosine monophosphate (cAMP) assay. Format: cell-based. Conditions: CHO cells overexpressing human FPR2; forskolin 5 µM; inhibition of cAMP production; read-out: hFPR2 cAMP2 EC50. The procedure, abridged: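 Inhibition of forskolin-driven (5 µM) cAMP, with 200 µM IBMX, measured in human FPR2-expressing CHO cells, 2,000 per well, 30 min at room temperature; compounds tested 0.020 nM to 100 µM in 1% DMSO. HTRF 665/590 ratio converted to cAMP via calibration curve, then 4-parameter fit.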

Another experiment addresses human FPR1 (Homo sapiens (Human), UniProt P21462). In words: FPR1 cyclic adenosine monophosphate (cAMP) assay. The format is cell-based. As to conditions: CHO cells overexpressing human FPR1; forskolin 10 µM; inhibition of cAMP production; read-out: hFPR1 cAMP EC50. The essentials: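 Human FPR1-expressing CHO cells were used at 4,000 per well, with compound at 0.020 nM–100 µM in 1% DMSO. Potency came from a 4-parameter logistic fit.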

Sequence of human FPR2 (P25090 whole entry): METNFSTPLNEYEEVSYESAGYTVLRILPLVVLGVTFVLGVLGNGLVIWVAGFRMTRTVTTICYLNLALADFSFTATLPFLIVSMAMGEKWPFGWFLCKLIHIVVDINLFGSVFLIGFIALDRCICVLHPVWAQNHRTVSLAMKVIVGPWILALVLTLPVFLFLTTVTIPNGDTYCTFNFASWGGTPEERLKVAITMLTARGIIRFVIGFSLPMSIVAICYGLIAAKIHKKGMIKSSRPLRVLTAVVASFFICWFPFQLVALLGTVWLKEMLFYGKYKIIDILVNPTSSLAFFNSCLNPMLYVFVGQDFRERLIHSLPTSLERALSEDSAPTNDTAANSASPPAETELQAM
Sequence of human FPR1 (P21462 whole entry): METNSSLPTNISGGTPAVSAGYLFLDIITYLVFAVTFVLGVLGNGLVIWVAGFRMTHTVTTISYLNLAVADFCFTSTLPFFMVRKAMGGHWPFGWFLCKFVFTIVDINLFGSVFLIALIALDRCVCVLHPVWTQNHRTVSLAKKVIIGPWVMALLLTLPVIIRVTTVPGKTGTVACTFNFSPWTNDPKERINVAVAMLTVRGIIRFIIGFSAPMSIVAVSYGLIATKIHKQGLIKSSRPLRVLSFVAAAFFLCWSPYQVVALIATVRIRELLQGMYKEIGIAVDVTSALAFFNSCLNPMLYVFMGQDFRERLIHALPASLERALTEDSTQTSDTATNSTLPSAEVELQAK

Consider `COc1ccc([C@@H]2CN(c3cccn(CC(OC)C(F)(F)F)c3=O)C(=O)[C@H]2NC(=O)c2ccc(OC(F)(F)F)cc2)cc1` (stereo partly drawn) [Example 433], for which the EC50 on human FPR2 is 1.8 nM; on human FPR1, 1 nM.
In the same order, the values of `COc1ccc([C@@H]2CN(c3cccn(CC(C)O)c3=O)C(=O)[C@H]2NC(=O)c2ccc(OC(F)F)cc2)cc1` (stereo partly drawn) [Example 434] are 4.4 nM and 10 nM.
Turning to `COc1ccc([C@@H]2CN(c3cccn(CC(C)O)c3=O)C(=O)[C@H]2NC(=O)c2ccc(OC(F)(F)F)cc2)c(F)c1` (stereo partly drawn) [Example 435], the 50% effective concentration (EC50) came out at 2.8 nM on human FPR2 and 4 nM at human FPR1.
As for `COc1ccc([C@@H]2CN(c3cccn(CC(C)O)c3=O)C(=O)[C@H]2NC(=O)c2ccc(OC(F)F)cc2)c(F)c1` (stereo partly drawn) [Example 436], the concentration for a half-maximal effect (EC50) on human FPR2 was less than 5 nM; on human FPR1, 9 nM.
On the same counts, the results for `COCC(CO)n1cccc(N2C[C@@H](c3ccc(OC)cc3F)[C@H](NC(=O)c3ccc(OC(F)(F)F)cc3)C2=O)c1=O` (stereo partly drawn) [Example 437] are 1 nM and 1 nM.
As to `COCC(CO)n1cccc(N2C[C@@H](c3ccc(OC)cc3F)[C@H](NC(=O)c3ccc(OC(F)F)cc3)C2=O)c1=O` (stereo partly drawn) [Example 438], the 50% effective concentration (EC50) worked out at 3.9 nM at human FPR2 and 7 nM at human FPR1.
On to `CC(O)Cn1cccc(N2C[C@@H](c3ccc(Cl)cc3)[C@H](NC(=O)c3ccc(OC(F)(F)F)cc3)C2=O)c1=O` (stereo partly drawn) [Example 439], for which the figures for the concentration giving a half-maximal response (EC50) at human FPR2 and at human FPR1 were 5.5 nM and 7 nM, respectively.
As to `COc1ccc([C@@H]2CN(c3cccn(CC(C)O)c3=O)C(=O)[C@H]2NC(=O)c2ccc(OC(F)(F)F)cc2)cc1` (stereo partly drawn) [Example 440], the half-maximal effective concentration (EC50) at human FPR2 is 1.3 nM; at human FPR1, 11 nM.
`COCC(C(=O)N1CCOCC1)n1cccc(N2C[C@@H](c3ccc(OC)cc3)[C@H](NC(=O)c3ccc(OC(F)F)cc3)C2=O)c1=O` (stereo partly drawn) [Example 441]: the EC50 at human FPR2 is 5.2 nM; on human FPR1, 3 nM.
On the same counts, the results for `Cc1ccn(CC2CC2)c(=O)c1N1C[C@@H](c2ccc(Cl)cc2)[C@H](NC(=O)c2ccc(OC(F)F)cc2)C1=O` [Example 442] are 9.6 nM and 1 nM.
In the same order, the values of `Cc1ccn(CC(F)F)c(=O)c1N1C[C@@H](c2ccc(Cl)cc2)[C@H](NC(=O)c2ccc(OC(F)(F)F)cc2)C1=O` [Example 443] are 5.1 nM and 2 nM.
On the same counts, the results for `COCC(C(=O)N1CCCC1)n1cccc(N2C[C@@H](c3ccc(OC)cc3)[C@H](NC(=O)c3ccc(OC(F)F)cc3)C2=O)c1=O` (stereo partly drawn) [Example 444] are 1.8 nM and 1 nM.
In the case of `COc1cc(F)c([C@H]2[C@H](NC(=O)c3ccc(OC(F)F)cc3)C(=O)N(c3cccn(CCO)c3=O)[C@H]2C)c(F)c1` [Example 445], the concentration giving a half-maximal response (EC50) at human FPR2 stood at 4.2 nM; at human FPR1, 620 nM.
In the same order, the values of `COc1cc(F)c([C@@H]2CN(c3cc4c(n(CCO)c3=O)CCCC4)C(=O)[C@H]2NC(=O)c2ccc(OC(F)F)cc2)c(F)c1` [Example 446] are less than 5 nM and 3 nM.
In the same order, the values of `COc1cc(F)c([C@@H]2CN(c3nccc(NCC4CCCO4)c3C(F)(F)F)C(=O)[C@H]2NC(=O)c2ccc(Cl)cc2)c(F)c1` (stereo partly drawn) [Example 447] are 4.7 nM and 2800 nM.
For `COCC(C(=O)N1CC[C@@H](O)C1)n1cccc(N2C[C@@H](c3c(F)cc(OC)cc3F)[C@H](NC(=O)c3ccc(OC(F)F)cc3)C2=O)c1=O` (stereo partly drawn) [Example 448], the EC50 came out at 8 nM on human FPR2 and 9 nM on human FPR1.
As to `COCC(CO)n1ccc(C)c(N2C[C@@H](c3ccc(OC)cc3)[C@H](NC(=O)c3ccc(OC(F)(F)F)cc3)C2=O)c1=O` (stereo partly drawn) [Example 449], the EC50 on human FPR2 worked out at 3.5 nM; at human FPR1, 0.2 nM.
Consider `COc1cc(F)c([C@@H]2CN(c3c(C)ccn(CC4CC4)c3=O)C(=O)[C@H]2NC(=O)c2ccc(Cl)cc2)c(F)c1` [Example 450], for which the EC50 at human FPR2 and at human FPR1 was 3 nM throughout.
